Molecules are shown by their SMILES.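 Tested at 5 concentrations; 48 h exposure; 96-well plates; endpoints linearly interpolated, else capped at highest concentration. GI50 marks 50% less growth. TGI denotes the concentration required for complete inhibition of growth.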 Some results are limits rather than exact numbers.

Experimental findings from PubChem BioAssay (NCI) are described below.

Some test systems named below: HCT-15 colon; MCF7 breast; MDA-MB-231 breast; OVCAR-3 ovarian; OVCAR-8 ovarian; RXF 393 renal; SK-MEL-2 melanoma; U251 CNS; UACC-62 melanoma; CCRF-CEM leukemia.
Holding throughout (assay): growth of human tumour cells (NCI), 48 h

For the compound `Nc1nc(-c2cccc([N+](=O)[O-])c2)cc(-c2cc(-c3cccc([N+](=O)[O-])c3)nc(N)n2)n1`, the TGI in the test with HCT-15 colon, in the test on MCF7 breast, with MDA-MB-231 breast, with OVCAR-3 ovarian, with OVCAR-8 ovarian and in the test on RXF 393 renal was greater than 100 µM each time. Also, the TGI in the test on SK-MEL-2 melanoma, in the test with U251 CNS and in the test on UACC-62 melanoma was greater than 100 µM each time.
On to `COc1cc(OC)c(C(=O)/C=C/c2cccc(OC(C)=O)c2)cc1CC=C(C)C`, for which the GI50 with CCRF-CEM leukemia was 7 µM; with HCT-15 colon, 5.74 µM; with MCF7 breast, 2.54 µM; with MDA-MB-231 breast, 13.1 µM; in the test on OVCAR-3 ovarian, 3.44 µM; with OVCAR-8 ovarian it was 8.38 µM. The GI50 with RXF 393 renal is 10.2 µM; in the test with SK-MEL-2 melanoma, 8.9 µM; with U251 CNS, 6.91 µM. The TGI with CCRF-CEM leukemia was 31 µM; in the test on HCT-15 colon, 14.4 µM; with MCF7 breast it was 44 µM; in the test on MDA-MB-231 breast it was greater than 50 µM; with OVCAR-3 ovarian it was 12.6 µM; in the test on OVCAR-8 ovarian, greater than 50 µM. The TGI in the test on RXF 393 renal was 32.3 µM; in the test on SK-MEL-2 melanoma it was 35.6 µM; with U251 CNS, 14.7 µM.
On to `COc1ccc2c(c1)/C(=N/OC(C)=O)c1c-2c(=O)[nH]c2ccccc12`, for which the GI50 with CCRF-CEM leukemia was 4.09 µM; with HCT-15 colon it was 16.1 µM; with MCF7 breast, 66.3 µM; in the test with MDA-MB-231 breast, 13 µM; with OVCAR-3 ovarian, 16.5 µM; in the test with OVCAR-8 ovarian, 14.7 µM. Further, the GI50 is 13.6 µM with SK-MEL-2 melanoma, 15.5 µM in the test with U251 CNS and 16.6 µM in the test on UACC-62 melanoma. Further, the TGI was 23.6 µM in the test on CCRF-CEM leukemia; 38.1 µM with HCT-15 colon; greater than 100 µM with MCF7 breast; 27.3 µM in the test on MDA-MB-231 breast; 36.3 µM with OVCAR-3 ovarian; 31.8 µM in the test with OVCAR-8 ovarian. The TGI amounted to 29 µM in the test on SK-MEL-2 melanoma, 30.1 µM in the test with U251 CNS and 30.4 µM with UACC-62 melanoma.
As to `O=[N+]([O-])c1ccc(Cl)cc1N/N=C/c1cccc2cccnc12`, the TGI in the test with CCRF-CEM leukemia, in the test with HCT-15 colon, with MCF7 breast, in the test with MDA-MB-231 breast, in the test with OVCAR-3 ovarian and in the test on OVCAR-8 ovarian was greater than 100 µM in each case. For the same compound, the TGI with RXF 393 renal, in the test with U251 CNS and with UACC-62 melanoma was greater than 100 µM each time.
On to `Cc1nc(C(N)=S)sc1C(=O)C/C(=N/N)C(=O)Nc1ccc(Cl)cc1`, for which the TGI in the test with MCF7 breast, in the test on MDA-MB-231 breast, in the test on OVCAR-3 ovarian, with OVCAR-8 ovarian, with RXF 393 renal and with SK-MEL-2 melanoma was greater than 100 µM throughout. The TGI in the test with U251 CNS and in the test with UACC-62 melanoma was greater than 100 µM in each case.
Consider `COc1ccc2c(c1)/C(=C/c1cc(OC)c(OC)c(OC)c1)C(=O)N2C`, for which the GI50 with CCRF-CEM leukemia is 2.21 µM; in the test with HCT-15 colon it was 2.12 µM; with MCF7 breast, 1.83 µM; in the test on MDA-MB-231 breast it was 2.81 µM; with OVCAR-3 ovarian, 2.03 µM; with OVCAR-8 ovarian, 4.21 µM. Besides, the GI50 is 3.29 µM in the test on SK-MEL-2 melanoma, 1.94 µM in the test with U251 CNS and 2.37 µM with UACC-62 melanoma. In addition, the TGI with CCRF-CEM leukemia was 7.04 µM; in the test on HCT-15 colon, greater than 35.6 µM; in the test with MCF7 breast, greater than 25.8 µM; with MDA-MB-231 breast, greater than 27.1 µM; with OVCAR-3 ovarian it was 5.95 µM; with OVCAR-8 ovarian, greater than 74.8 µM. In addition, the results for the TGI in the test with SK-MEL-2 melanoma, with U251 CNS and with UACC-62 melanoma were 7.41 µM, 4.83 µM and greater than 24 µM, respectively.
For the compound `O=[N+]([O-])c1ccc2nc3ccccc3cc2c1`, the TGI with HCT-15 colon is 10 µM; in the test with MCF7 breast, greater than 100 µM; in the test on MDA-MB-231 breast, 8.64 µM; in the test on OVCAR-3 ovarian, 1.3 µM; in the test with OVCAR-8 ovarian, 2.58 µM; with RXF 393 renal it was greater than 100 µM. Besides, the TGI in the test on SK-MEL-2 melanoma was determined as 27.8 µM; in the test on U251 CNS it was 10.6 µM; with UACC-62 melanoma, 6.27 µM.
Consider `COc1ccc(N(C)c2c3ccccc3nc3[nH]c4ccccc4c23)cc1`, for which the GI50 is 2.29 µM with HCT-15 colon; 0.168 µM in the test with MCF7 breast; 0.616 µM in the test on MDA-MB-231 breast; 0.261 µM in the test on OVCAR-3 ovarian; 0.798 µM in the test on OVCAR-8 ovarian; 5.4 µM with RXF 393 renal. Besides, the figures for the GI50 in the test with SK-MEL-2 melanoma, with U251 CNS and in the test with UACC-62 melanoma were 6.16 µM, 0.525 µM and 0.875 µM, respectively. The TGI is 9.3 µM in the test with HCT-15 colon; 0.655 µM in the test on MCF7 breast; 2.05 µM with MDA-MB-231 breast; 1.16 µM with OVCAR-3 ovarian; 7.42 µM in the test on OVCAR-8 ovarian; 22.3 µM in the test on RXF 393 renal. For the same compound, the TGI with SK-MEL-2 melanoma was determined as 26.1 µM; in the test on U251 CNS it was 2.39 µM; in the test on UACC-62 melanoma it was 2.64 µM.
Turning to `CC1(C)CC2(C)CC1CC2NC(=O)CCN1CCOCC1` (stereo not drawn), the TGI in the test on CCRF-CEM leukemia, in the test on MCF7 breast, in the test on MDA-MB-231 breast, in the test on OVCAR-3 ovarian, in the test with OVCAR-8 ovarian and in the test with RXF 393 renal was greater than 100 µM throughout. In addition, the TGI with U251 CNS and with UACC-62 melanoma was greater than 100 µM in each case.
For `O=C(Nc1cccc(-n2cc(-c3ccncc3)c(-c3ccc(O)c(Cl)c3)n2)c1)Nc1cccc(C(F)(F)F)c1`, the GI50 is 2.12 µM with CCRF-CEM leukemia; 2.24 µM with HCT-15 colon; 2.15 µM in the test on MCF7 breast; 2.24 µM in the test on MDA-MB-231 breast; 2.41 µM in the test on OVCAR-8 ovarian; 1.19 µM with RXF 393 renal. The GI50 with SK-MEL-2 melanoma is 2.35 µM; in the test on U251 CNS, 1.4 µM; in the test on UACC-62 melanoma it was 2.28 µM. The TGI with CCRF-CEM leukemia is 7.92 µM; in the test with HCT-15 colon, 10.2 µM; with MCF7 breast it was 6.59 µM; in the test on MDA-MB-231 breast, 16.9 µM; in the test on OVCAR-8 ovarian, 11.1 µM; in the test with RXF 393 renal, 4.05 µM. Further, the results for the TGI in the test on SK-MEL-2 melanoma, in the test on U251 CNS and in the test with UACC-62 melanoma were 4.75 µM, 4.8 µM and 5.5 µM, respectively.
